Data from EP3414211B1, “PLASTER COMPOSITION” (priority 2016, dated 2017).

Tests used:
[1] = Foamability (foam volume) after one minute of foam generation with an Ultra Turrax system at 8200 rpm; format: physicochemical
Description: The "foamability", i.e. the volume of foam produced, and the foam stability were tested for a number of combinations of foaming agent and co-surfactant. Specifically, a number of foaming solutions were prepared containing various amounts of foaming agent and co-surfactant. The following foaming agents were tested: FA1 mixture of linear sodium octyl sulfate, sodium decyl sulfate, and sodium dodecyl sulfate as described in EP1328485. FA2 sodium n-decyl sulfate (Empicol® 0758, available from Huntsman) FA3 alkyl ether sulfate (Millifoam® H, available from Huntsman) FA4 STEOL ® DES32-IS (alkyl ether sulfate based surfactant, available from Stepan)
Each of the foaming agents was mixed with 5 wt%, 10 wt%, and 20 wt% (relative to the weight of foaming agent) of the following co-surfactants: CS1 lauramine oxide (dodecyldimethylamine oxide), available under the trade name Empigen® OB (Huntsman Performance Products) CS2 C8-10alkyl polyglucoside available under the trade name Glucopon 215® (comparative example)
(§1) For each mixture, foamability (foam volume) and foam stability were measured after one minute of foam generation with an Ultra Turrax system at 8200 rpm.

[2] = Foam stability (foam half-life: time to recover one half of the original liquid volume from the foam); format: physicochemical
Description: as §1
Also the foam stability was tested, by measuring the foam half-life, i.e. the amount of time it takes to recover one half of the original volume of liquid from a measured volume of foam.

[3] = co-surfactant mixed at 5, 10, 20 wt% with foaming agents

Row | Foam volume increase (%) ([1]; 0 % CS1 (baseline)) | Foam volume ([1]; 0 % CS1 (wt% relative to total foaming agent and co-surfactant)) | Foam volume ([1]; 5 % CS1) | Foam volume increase (%) ([1]; 5 % CS1, versus 0 % CS1) | Foam volume ([1]; 10 % CS1) | Foam volume increase (%) ([1]; 10 % CS1, versus 0 % CS1) | Foam volume ([1]; 20 % CS1) | Foam volume increase (%) ([1]; 20 % CS1, versus 0 % CS1) | Half-life ([2]; 0 % CS1) | Half-life increase (%) ([2]; 0 % CS1 (baseline)) | Half-life ([2]; 5 % CS1) | Half-life increase (%) ([2]; 5 % CS1, versus 0 % CS1) | Half-life ([2]; 10 % CS1) | Half-life increase (%) ([2]; 10 % CS1, versus 0 % CS1) | Half-life ([2]; 20 % CS1) | Half-life increase (%) ([2]; 20 % CS1, versus 0 % CS1) | SMILES | effect of co-surfactant on foamability (foam volume) of the foaming agents [1, 3] | effect of co-surfactant on foam stability [2, 3]
1 |  |  |  |  |  |  |  |  |  |  |  |  |  |  |  |  | CCCCCCCCCCCC[N+](C)(C)[O-] [CS1, dodecyldimethylamine oxide] | significantly increase | highest foam stability improvement
2 | 0% | 530 mL | 562 mL | 6% | 599 mL | 13% | 588 mL | 11% | 5.78 min | 0% | 6.18 min | 7% | 6.87 min | 11% | 8.4 min | 36% | CCCCCCCCCCOS(=O)(=O)[O-].[Na+] [FA2, sodium n-decyl sulfate] |  | 
